Source: PubChem BioAssay (NCI)
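The compound was tested at five concentrations on cells cultured in 96-well plates, with a 48-hour exposure period. TGI: total growth inhibition.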

Legend:
Experiment in all cases: DTP human tumour cell line panel, 48 h
HCT-116 colon = test system: HCT-116 colon
OVCAR-8 ovarian = test system: OVCAR-8 ovarian
HL-60(TB) leukemia = test system: HL-60(TB) leukemia
MCF7 breast = test system: MCF7 breast
MOLT-4 leukemia = test system: MOLT-4 leukemia
M14 melanoma = test system: M14 melanoma
RXF 393 renal = test system: RXF 393 renal
UACC-257 melanoma = test system: UACC-257 melanoma
SNB-75 CNS = test system: SNB-75 CNS
ACHN renal = test system: ACHN renal
SK-OV-3 ovarian = test system: SK-OV-3 ovarian
HOP-92 NSCLC = test system: HOP-92 NSCLC
HS 578T breast = test system: HS 578T breast
NCI-H460 lung = test system: NCI-H460 lung
HOP-62 NSCLC = test system: HOP-62 NSCLC
OVCAR-3 ovarian = test system: OVCAR-3 ovarian
SR leukemia = test system: SR leukemia
RPMI-8226 leukemia = test system: RPMI-8226 leukemia

SMILES | TGI (HCT-116 colon) [µM] | TGI (OVCAR-8 ovarian) [µM] | TGI (HL-60(TB) leukemia) [µM] | TGI (MCF7 breast) [µM] | TGI (MOLT-4 leukemia) [µM] | TGI (M14 melanoma) [µM] | TGI (RXF 393 renal) [µM] | TGI (UACC-257 melanoma) [µM] | TGI (SNB-75 CNS) [µM] | TGI (ACHN renal) [µM] | TGI (SK-OV-3 ovarian) [µM] | TGI (HOP-92 NSCLC) [µM] | TGI (HS 578T breast) [µM] | TGI (NCI-H460 lung) [µM] | TGI (HOP-62 NSCLC) [µM] | TGI (OVCAR-3 ovarian) [µM] | TGI (SR leukemia) [µM] | TGI (RPMI-8226 leukemia) [µM]
O=C(NCCCCN(CCCNC(=O)C(F)(F)F)Cc1ccc2ccccc2c1)C(F)(F)F | 33.9 | 36.1 | > 100 | 27.8 | 49 | 30.3 | 52.9 | 33.9 | 28.5 | 38.9 | 55.6 | 67.1 | 38.6 | 29.9 | – | – | – | –
O=C1NC(=O)C(CC(C(=O)C(=O)Nc2ccccc2Cl)C(=O)c2ccc3ccccc3c2)C(=O)N1 (configuration not stated) | > 100 | > 100 | > 100 | > 100 | > 100 | > 100 | > 100 | > 100 | > 100 | > 100 | > 100 | > 100 | > 100 | > 100 | > 100 | > 100 | – | –
c1ccc2c(c1)Nc1ccccc1[P+]21c2ccccc2Nc2ccccc21 | 1.05 | 5.39 | 0.485 | – | 1.11 | 2.23 | 0.891 | – | 0.332 | 9.29 | 0.869 | – | 1.36 | 2.81 | 1.58 | 0.612 | 1.4 | –
C/C(=C\c1ccccc1)C(=O)NCc1ccc(C(=O)NCCC(C)C)cc1 | > 100 | > 100 | – | > 100 | > 100 | > 100 | 63.4 | > 100 | 89.4 | > 100 | 94.6 | > 100 | – | > 100 | 48 | > 100 | – | > 100
O=C1CCCC2C(O)CCC[C@H]12 (some centres not stated) | > 100 | > 100 | > 100 | > 100 | > 100 | > 100 | > 100 | > 100 | > 100 | > 100 | > 100 | – | > 100 | > 100 | > 100 | – | > 100 | –
CC(C)C[C@H](NC(=O)[C@H](Cc1ccccc1)NC(=O)CCc1ccccc1)B(O)O | < 0.01 | < 0.01 | – | 0.225 | 0.665 | < 0.01 | < 0.01 | < 0.01 | < 0.01 | < 0.01 | 0.0727 | < 0.01 | < 0.01 | < 0.0104 | < 0.01 | < 0.01 | – | > 100
O=[N+]([O-])c1ccc2[nH]nc(OCc3ccccn3)c2c1 | > 100 | > 100 | > 100 | – | > 100 | > 100 | > 100 | > 100 | > 100 | > 100 | > 100 | > 100 | > 100 | > 100 | > 100 | > 100 | > 100 | > 100
Nc1ccc(-c2cssc2=S)cc1 | > 100 | > 100 | 62.5 | > 100 | > 100 | > 100 | > 100 | > 100 | – | > 100 | > 100 | > 100 | > 100 | > 100 | > 100 | – | – | 5.65
C=CCOC(=O)Cn1cc(C)c(=O)[nH]c1=O | > 100 | > 100 | > 100 | > 100 | > 100 | > 100 | – | > 100 | > 100 | > 100 | > 100 | – | > 100 | > 100 | > 100 | – | > 100 | > 100
CCOC(O)(NC(=O)C(C(F)(F)F)C(F)(F)F)C(F)(F)F (configuration not stated) | > 100 | > 100 | > 100 | – | > 100 | > 100 | > 100 | > 100 | > 100 | > 100 | – | – | > 100 | – | – | – | > 100 | > 100
COC(=O)C1=C(C(=O)OC)C(Cc2ccccc2)(OO)OC1=O (configuration not stated) | > 100 | > 100 | 3.66 | 53.9 | 30.8 | > 100 | 32.8 | > 100 | 49.6 | 9.36 | 94.4 | 42.4 | – | > 100 | – | 19.7 | > 100 | –
Cn1c(N)c(C(N)=O)[nH]c1=S | – | > 100 | > 100 | > 100 | > 100 | > 100 | > 100 | – | > 100 | > 100 | > 100 | – | > 100 | > 100 | > 100 | > 100 | > 100 | > 100
n1onc2c1NC1Nc3nonc3NC1N2 (configuration not stated) | > 100 | > 100 | > 100 | > 100 | > 100 | > 100 | – | – | > 100 | > 100 | > 100 | > 100 | > 100 | > 100 | > 100 | > 100 | – | > 100
CC(=O)Nc1ccc(N=C2C(c3ccccc3)=C(SC3=C(c4ccccc4)C(=Nc4ccc(NC(C)=O)cc4)c4ccccc43)c3ccccc32)cc1 | > 100 | > 100 | – | > 100 | 63 | > 100 | 82.8 | > 100 | > 100 | > 100 | > 100 | > 100 | – | > 100 | > 100 | > 100 | > 100 | 81.1
Cn1ccc(C(=O)N2CCSC2=S)c(OCc2ccccc2)c1=O | > 100 | > 100 | > 100 | – | – | – | – | > 100 | > 100 | > 100 | – | > 100 | > 100 | > 100 | – | – | 93.6 | > 100
COCO[C@@H]1C[C@H]2C(=O)N(COC)c3ccccc3C(=O)N2C1 | > 100 | > 100 | > 100 | > 100 | > 100 | > 100 | > 100 | > 100 | > 100 | > 100 | > 100 | – | > 100 | – | > 100 | – | – | –
CC(C)(C)n1c(=O)[nH]n(C2NN=Cc3cccc4cccc2c34)c1=O (configuration not stated) | > 100 | > 100 | 42.1 | > 100 | 81.1 | > 100 | 72.2 | > 100 | 85.6 | – | > 100 | – | > 100 | > 100 | – | > 100 | 37.4 | 74.6
O=C(N/N=C(/COc1ccc(Cl)cc1)N=Cc1cccnc1)c1ccncc1 | > 100 | > 100 | > 100 | > 100 | > 100 | > 100 | > 100 | > 100 | > 100 | > 100 | > 100 | 84.5 | 94.9 | > 100 | > 100 | > 100 | – | > 100
COC(=O)[C@H](Cc1ccccc1)NC(=O)N1CCCN(C(=O)N[C@@H](Cc2ccccc2)C(=O)OC)CCCN(C(=O)N[C@@H](Cc2ccccc2)C(=O)OC)CCC1 | 38.9 | 47.2 | 69.2 | 49.3 | 40.8 | 32.4 | 32.6 | 35.5 | 30.6 | 31.3 | 73.9 | 30.3 | 44.6 | 81.5 | 35.5 | 32.4 | – | > 100
COc1ccc(N(CN2C(=O)CCC2C(=O)O)C(C)=O)cc1 (configuration not stated) | > 100 | > 100 | > 100 | > 100 | > 100 | > 100 | – | > 100 | > 100 | > 100 | > 100 | > 100 | > 100 | > 100 | > 100 | > 100 | – | > 100
COc1ccc(/C=C2\C(=O)N(C)C(=O)c3cc(OC)c(OC)cc32)cc1OC | > 100 | – | 40.1 | > 100 | > 100 | > 100 | 51.6 | > 100 | – | > 100 | – | 75.5 | – | > 100 | 90 | > 100 | 55.5 | 66.9
CC(=O)O[C@]12CCCCC1C1(O)C(O)CCCCC12 (some centres not stated) | > 100 | > 100 | > 100 | – | > 100 | > 100 | > 100 | > 100 | > 100 | > 100 | > 100 | – | – | > 100 | > 100 | – | > 100 | > 100
COc1ccccc1/C=C(\C#N)C(=O)c1ccccc1 | > 100 | > 100 | > 100 | – | > 100 | > 100 | – | > 100 | – | > 100 | > 100 | > 100 | – | > 100 | > 100 | > 100 | > 100 | > 100
Cc1c(C#N)c2ccccc2c2nc3ccccc3n12 | > 100 | > 100 | > 100 | > 100 | > 100 | – | > 100 | > 100 | > 100 | > 100 | > 100 | > 100 | > 100 | > 100 | > 100 | > 100 | – | > 100
O=c1[nH]cnc2c1sc1nc3ccccc3n12 | > 100 | > 100 | – | > 100 | > 100 | > 100 | 84.4 | > 100 | > 100 | > 100 | > 100 | > 100 | > 100 | – | > 100 | > 100 | – | > 100
COc1cc(/C=N/n2c(Cc3ccc(Cl)cc3)n[nH]c2=O)cc(OC)c1OC | > 100 | > 100 | – | > 100 | > 100 | > 100 | > 100 | > 100 | > 100 | > 100 | > 100 | – | 27.2 | > 100 | > 100 | > 100 | – | –
CCOc1ccc(Nc2nc3c(s2)C(=O)c2ccccc2C3=O)cc1 | 33.2 | – | > 100 | 38.4 | > 100 | 27 | 27.6 | 27.4 | 24 | 28.9 | 34.3 | 27.6 | > 100 | 38.9 | 32 | 12.9 | – | > 100
Cc1ccc(Cc2n[nH]c(=O)n2/N=C\CC/C=N\n2c(Cc3ccc(C)cc3)n[nH]c2=O)cc1 | > 100 | 39.9 | > 100 | > 100 | > 100 | > 100 | 65.3 | > 100 | 34.7 | > 100 | > 100 | 76.1 | 45.5 | – | 24.6 | > 100 | – | > 100
Cc1nc2ccc(Cl)cc2c2c1CCS2 | > 100 | > 100 | 65 | > 100 | 74.3 | > 100 | > 100 | > 100 | – | > 100 | > 100 | – | > 100 | > 100 | > 100 | > 100 | 86.6 | 71.4
CCOC(=O)[C@]12C(=C(c3ccccc3)O[C@H]3C=CCC[C@H]31)C(=O)C(=O)N2c1ccccc1 | > 100 | > 100 | – | > 100 | 61.3 | > 100 | > 100 | – | – | > 100 | > 100 | – | – | > 100 | > 100 | > 100 | 46.8 | 51.6
